For this test, the target named is T1, human M4 muscarinic acetylcholine receptor (Homo sapiens, UniProt P08173).
T1 construct: expressed in transfected cells; host or cells: CHO-K1
T1 sequence (P08173 1-479): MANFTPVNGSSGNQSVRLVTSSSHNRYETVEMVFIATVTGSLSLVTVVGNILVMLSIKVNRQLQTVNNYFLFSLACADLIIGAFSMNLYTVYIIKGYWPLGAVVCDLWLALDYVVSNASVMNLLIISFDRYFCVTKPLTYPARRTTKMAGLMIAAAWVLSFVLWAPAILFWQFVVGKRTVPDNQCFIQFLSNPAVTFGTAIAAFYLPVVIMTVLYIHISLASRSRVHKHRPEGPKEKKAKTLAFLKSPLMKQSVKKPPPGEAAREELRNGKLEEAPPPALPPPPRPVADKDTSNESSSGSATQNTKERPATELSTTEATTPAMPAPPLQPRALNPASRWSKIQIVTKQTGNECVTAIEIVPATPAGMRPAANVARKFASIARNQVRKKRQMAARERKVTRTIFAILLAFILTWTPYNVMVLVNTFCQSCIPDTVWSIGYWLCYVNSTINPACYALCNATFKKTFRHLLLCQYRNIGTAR
The experiment in a line: human FLIPR-based M4 PAM assay (calcium mobilization in CHO-K1 cells with human M4 receptor and Gαqi5). It counts as cell-based. Conditions: inflection point of dose response curve, acetylcholine at 20% of maximum response, FLIPR Tetra, read-out: M4 PAM IP. The method, then: (§1) In a typical experiment the M4 muscarinic acetylcholine receptor modulating activity of the compounds of the present invention was determined in accordance with the following experimental method. CHO-K1 cells stably transfected with human M4 receptor and chimeric G-protein Gαqi5 (Coward P, et al., Analytical Biochemistry, 270:242-248 (1999)) are thawed from liquid N2 storage, resuspended in growth medium, plated in black, clear bottom 384 well plates, and incubated 16-20 hours at 37° C., 5% CO2. On the day of assay, growth medium is removed, the cells are washed 2 times with wash buffer, and cells are incubated in dye loading buffer at 37° C., 5% CO2 for ˜1 hour. Following dye loading the cell plates are placed in a FLIPR Tetra instrument and while monitoring dye fluorescence (excitation […]), 10 uL of test substance at increasing concentrations is added, and fluorescence values are recorded for 4 min. Next, 10 uL of acetylcholine is added (final concentration calculated so as to achieve 20% of the maximum acetycholine response), and the fluorescence reading is continued for 3.5 min. In some cases, a third addition of acetylcholine (final concentration calculated to achieve 70% of the maximal acetylcholine response) is performed. The resulting dose response curves are fit to a 4 parameter logistic equation and the final result is determined as the inflection point (IP) of the curve
as §1, with “CHO-K1” for “In a typical experiment the M4 muscarinic acetylcholine receptor modulating activity of the compounds of the present invention was determined in accordance with the following experimental method. CHO-K1”, “Gαqi5” for “Gαqi5 (Coward P, et al., Analytical Biochemistry, 270:242-248 (1999))”, “performed.” for “performed. The resulting dose response curves are fit to a 4 parameter logistic equation and the final result is determined as the inflection point (IP) of the curve”
A general note: Calcium assays in cells follow changes in intracellular calcium, usually with a dye or a luminescent sensor.
Consider `CC1(Cn2cc(-c3ccc(C#N)nc3-c3ccc4c(c3)C(=O)N(C3CC3)C4)cn2)CCCC1` [Example 33, 6-(2-cyclopropyl-3-oxoisoindolin-5-yl)-5-(1-((1-methylcyclopentyl)methyl)-1H-pyrazol-4-yl)picolinonitrile], for which the EC50 turned out to be 7 nM. As for `CC1(Cn2cc(-c3cc4c(nc3-c3cnc5c(c3)C(=O)N(CC3CC3)C5)[C@H](F)CC4)cn2)CCCC1` (single isomer, unassigned) [Example 1A], the figure is 67 nM; as for `CN1Cc2ccc(-c3nc(F)c(F)cc3-c3cnn(CC4(C)CCCC4)c3)cc2C1=O` [Example 127, 6-(5,6-Difluoro-3-(1-((1-methylcyclopentyl)methyl)-1H-pyrazol-4-yl)pyridin-2-yl)-2-methylisoindolin-1-one], 90 nM; as for `COCc1nc(-c2ccc3c(c2)C(=O)N(C)C3)c(-c2cnn(CC3(C)CCCC3)c2)cc1C` [Example 116, 6-(6-(Methoxymethyl)-5-methyl-3-(1-((1-methylcyclopentyl)methyl)-1H-pyrazol-4-yl)pyridin-2-yl)-2-methylisoindolin-1-one], 326 nM. Then `Cc1cc(-c2cnn(CC3(C)CCCC3)c2F)c(-c2ccc3c(c2)C(=O)N(C)C3)nc1Cl` [Example 75, 6-(6-chloro-3-(5-fluoro-1-((1-methylcyclopentyl)methyl)-1H-pyrazol-4-yl)-5-methylpyridin-2-yl)-2-methylisoindolin-1-one], with 80 nM. As for `O=C1c2cc(-c3ncccc3-c3cnn(CC4CCCC4)c3)ccc2CN1CCc1ccc(O)cc1` [Example 94, 6-(3-(1-(cyclopentylmethyl)-1H-pyrazol-4-yl)pyridin-2-yl)-2-(4-hydroxyphenethyl)isoindolin-1-one], the figure is 29 nM; as for `CC1(Cn2cc(-c3ccc(C#N)nc3-c3cnc4c(c3)C(=O)N(CC3CC3)C4)cn2)CCCC1` [Example 102, 6-(6-(cyclopropylmethyl)-5-oxo-6,7-dihydro-5H-pyrrolo[3,4-b]pyridin-3-yl)-5-(1-((1-methylcyclopentyl)methyl)-1H-pyrazol-4-yl)picolinonitrile], 35 nM. In the case of `CN1Cc2ccc(-c3nc(C#N)c(N)cc3-c3cnn(CC4(C)CCCC4)c3)cc2C1=O` [Example 51, 3-amino-6-(2-methyl-3-oxoisoindolin-5-yl)-5-(1-((1-methylcyclopentyl)methyl)-1H-pyrazol-4-yl)picolinonitrile], the EC50 amounted to 75 nM. As for `CN1Cc2ccc(-c3nc(C(N)=O)ccc3-c3cnn(CC4CCCC4)c3)cc2C1=O` [Example 17, 5-(1-(cyclopentylmethyl)-1H-pyrazol-4-yl)-6-(2-methyl-3-oxoisoindolin-5-yl)picolinamide], the figure is 278 nM; as for `Cc1ccc(-c2cnn(CC3CCCC3)c2F)c(-c2ccc3c(c2)C(=O)N(CC2CC2)C3)n1` [Example 9, 6-(3-(1-(cyclopentylmethyl)-5-fluoro-1H-pyrazol-4-yl)-6-methylpyridin-2-yl)-2-(cyclopropylmethyl)isoindolin-1-one], 12 nM; as for `CN1Cc2ncc(-c3nc4c(cc3-c3cnn(CC5(C)CCCC5)c3F)CCC4)cc2C1=O` [Example 74, 3-(3-(5-fluoro-1-((1-methylcyclopentyl)methyl)-1H-pyrazol-4-yl)-6,7-dihydro-5H-cyclopenta[b]pyridin-2-yl)-6-methyl-6,7-dihydro-5H-pyrrolo[3,4-b]pyridin-5-one], 24 nM. With `COCCN1Cc2ccc(-c3nc4c(cc3-c3cnn(CC5(C)CCCC5)c3)CCC4)cc2C1=O` [Example 73, 2-(2-methoxyethyl)-6-(3-(1-((1-methylcyclopentyl)methyl)-1H-pyrazol-4-yl)-6,7-dihydro-5H-cyclopenta[b]pyridin-2-yl)isoindolin-1-one], the EC50 was determined as 52 nM. As for `CC1(Cn2ncc(-c3ccc(C#N)nc3-c3ccc4c(c3)C(=O)N(CC3CC3)C4)c2F)CCCC1` [Example 45, 6-(2-(cyclopropylmethyl)-3-oxoisoindolin-5-yl)-5-(5-fluoro-1-((1-methylcyclopentyl)methyl)-1H-pyrazol-4-yl)picolinonitri1e], the EC50 was found to be 41 nM. Then `CN1Cc2ccc(-c3nc(C#N)ccc3-c3cn(CC4(C)CCCC4)nc3C#N)cc2C1=O` [Example 110, 5-(3-Cyano-1-((1-methylcyclopentyl)methyl)-1H-pyrazol-4-yl)-6-(2-methyl-3-oxoisoindolin-5-yl)picolinonitrile], with 86 nM.

In the case of `Cc1ccc(-c2cnn(CC3CCCC3)c2)c(-c2ccc3c(c2)C(=O)N(C)C3)n1` [Example 97, 6-(3-(1-(cyclopentylmethyl)-1H-pyrazol-4-yl)-6-methylpyridin-2-yl)-2-methylisoindolin-1-one], the EC50 is 16 nM.

Consider `CC1(Cn2cc(-c3ccc(C#N)nc3-c3ccc4c(c3)C(=O)NC4(C)C)cn2)CCCC1` [Example 64, 6-(1,1-dimethyl-3-oxoisoindolin-5-yl)-5-(1-((1-methylcyclopentyl)methyl)-1H-pyrazol-4-yl)picolinonitrile], for which the EC50 was 119 nM.

With `CN1Cc2ncc(-c3nc(CF)ccc3-c3cnn(CC4(C)CCCC4)c3)cc2C1=O` [Example 58, 3-(6-(fluoromethyl)-3-(1-((1-methylcyclopentyl)methyl)-1H-pyrazol-4-yl)pyridin-2-yl)-6-methyl-6,7-dihydro-5H-pyrrolo[3,4-b]pyridin-5-one], the EC50 is 35 nM.

As for `CN1Cc2ccc(-c3nc(F)ccc3-c3cnn(CC4CCCC4)c3)cc2C1=O` [Example 22, 6-(3-(1-(cyclopentylmethyl)-1H-pyrazol-4-yl)-6-fluoropyridin-2-yl)-2-methylisoindolin-1-one], the EC50 is 28 nM. As to `CC1(Cn2cc(-c3cc4c(nc3-c3cnc5c(c3)C(=O)N(CC3CC3)C5)CCC4)cn2)CCCC1` [Example 10, 6-(cyclopropylmethyl)-3-(3-(1-((1-methylcyclopentyl)methyl)-1H-pyrazol-4-yl)-6,7-dihydro-5H-cyclopenta[b]pyridin-2-yl)-6,7-dihydro-5H-pyrrolo[3,4-b]pyridin-5-one], the EC50 is 54 nM. Then `O=C1c2cc(-c3ncccc3-c3cnn(CC4CCCC4)c3)ccc2CN1C1CC1` [Example 93, 6-(3-(1-(cyclopentyl-methyl)-1H-pyrazol-4-yl)pyridin-2-yl)-2-cyclopropylisoindolin-1-one], with 58 nM; and `O=C1c2cc(-c3ncccc3-c3cnn(CC4CCCC4)c3F)ccc2CN1CC1CC1` [Example 8, 6-(3-(1-(cyclopentylmethyl)-5-fluoro-1H-pyrazol-4-yl)pyridin-2-yl)-2-(cyclopropylmethyl)isoindolin-1-one], with 142 nM. For `CC1(Cn2cc(-c3cccnc3-c3ccc4c(c3)C(=O)NC4)cn2)CCCC1` [Example 24, 6-(3-(1-((1-methylcyclopentyl)methyl)-1H-pyrazol-4-yl)pyridin-2-yl)isoindolin-1-one], the EC50 worked out at 20 nM. Regarding `Cc1ccc(-c2cnn(CC3CCCC3)c2F)c(-c2ccc3c(c2)C(=O)N(C)C3)n1` [Example 76, 6-(3-(1-(cyclopentylmethyl)-5-fluoro-1H-pyrazol-4-yl)-6-methylpyridin-2-yl)-2-methylisoindolin-1-one], the EC50 was 9 nM.

For `CN1Cc2ccc(-c3ncccc3-c3cnn(CC4(C)CCCC4)c3)cc2C1=O` [Example 25, 2-methyl-6-(3-(1-((1-methylcyclopentyl)methyl)-1H-pyrazol-4-yl)pyridin-2-yl)isoindolin-1-one], the EC50 stood at 21 nM. On to `CC1(Cn2cc(-c3ccc(C#N)nc3-c3ccc4c(c3)C(=O)N(C3COC3)C4)cn2)CCCC1` [Example 82, 5-(1-((1-methylcyclopentyl)methyl)-1H-pyrazol-4-yl)-6-(2-(oxetan-3-yl)-3-oxoisoindolin-5-yl)picolinonitrile], for which the EC50 is 310 nM.

These data come from patent publication US10933056B2, “3-(1H-pyrazol-4-yl)pyridine allosteric modulators of the M4 muscarinic acetylcholine receptor” (Merck Sharp & Dohme Corp., priority 2015, dated 2021).
